Measurements: paper PMC3457657 (Medicinal chemistry research : an international journal for …, 2011)
Read-outs that look alike come from different tables or passages of the source.

How the values were obtained:
[1] = system: Staphylococcus aureus ATCC 29213; test: In vitro antimicrobial; assay type: cell-based; conditions: ATCC29213, read-out: IC50 Antibacterial S. aureus
[2] = system: Cryptococcus neoformans ATCC 90113; test: In vitro antimicrobial; assay type: cell-based; conditions: ATCC90113, read-out: IC50 Antifungal C. neoformans
[3] = system: mouse skin tumor promotion; conditions: two-stage carcinogenesis; ref Mikaye et al., 2010; cited from earlier work
[4] = system: sex cells of the sea urchin Strongylocentrotus intermedius; conditions: at a concentration of 0.5 mg/l; ref Smetanina et al., 2007; cited from earlier work
[5] = system: methicillin-resistant S. aureus ATCC 33591 (MRS); test: In vitro antimicrobial; assay type: cell-based; conditions: Staphylococcus aureus, ATCC33591, read-out: IC50 Antibacterial MRS
[6] = ref Mikaye et al., 2009; Ishikawa et al., 1984; Li et al., 2006; cited from earlier work
[7] = system: mitochondrial respiration; conditions: ref Kawai et al., 1986; cited from earlier work
HeLa cells = conditions: cited from earlier work
[8] = system: P. falciparum chloroquine-sensitive strain (D6, Sierra Leone); test: In vitro antimalarial activity, plasmodial LDH activity; assay type: cell-based, Plasmodium falciparum; conditions: chloroquine-sensitive strain D6, 72 h
[9] = system: P. falciparum chloroquine-resistant strain (W2, Indo China); test: as above; assay type: cell-based, Plasmodium falciparum; conditions: chloroquine-resistant strain W2, 72 h
S. aureus = conditions: ref Desbois et al., 2008; cited from earlier work
[10] = system: visceral and cutaneous leishmaniasis; conditions: oral drug, ref Berman, 2008; cited from earlier work
[11] = ref Vesonder et al., 1988; cited from earlier work
[12] = ref Ali et al., 1989; cited from earlier work
[13] = ref Vesonder et al., 1988; cited from earlier work; remark: listed apart in the source
[14] = ref Mori et al., 1984; cited from earlier work
[15] = ref Fujimoto et al. 1999; cited from earlier work

| IC50 [1] [µg/mL] | IC50 [2] [µg/mL] | IC50 [5] [µg/mL] | SMILES | inhibition of mouse skin tumor promotion [3] | antioxidant activity and radical scavenging activity against DPPH [6] | further results |
| --- | --- | --- | --- | --- | --- | --- |
| > 20 | > 20 | – | CCCCC/C=C/c1c(O)cc(CC=C(C)C)c(O)c1CO [Compound 1, (E)-2-(hept-1-enyl)-3-(hydroxymethyl)-5-(3-methylbut-2-enyl)benzene-1,4-diol] | – | – | – |
| – | > 20 | > 20 | CCCCC/C=C/c1c(O)cc(CC=C(C)C)c(O)c1C=O [Compound 3, tetrahydroauroglaucin] | inhibited | antioxidant activity and radical scavenging activity | cytotoxic activity against sex cells of the sea urchin [4]: cytotoxic activity |
| – | > 20 | – | CCCCCCCc1c(O)cc(CC=C(C)C)c(O)c1C=O [Compound 2, flavoglaucin] | inhibited | antioxidant activity and radical scavenging activity | mitochondrial respiration [7]: inhibited mitochondrial respiration; mitochondrial swelling [7]: induced mitochondrial swelling; cytotoxicity to HeLa cells (HeLa cells): cytotoxic |
| – | – | – | CCC/C=C/c1cc2c(C=O)c(O)c(CC=C(C)C)cc2o1 [Compound 6, 2-(2′,3-epoxy-1′,3′-heptadienyl)-6-hydroxy-5-(3-methyl-2-butenyl)benzaldehyde] | – | antioxidant activity and radical scavenging activity | IC50 Antimalarial P. falciparum D6 [8]: inactive; IC50 Antimalarial P. falciparum W2 [9]: inactive |
| – | – | – | CCCCCC/C=C\CCCCCCCC(=O)O [(9Z)-hexadecenoic acid] | – | – | potency against S. aureus relative to (6Z, 9Z, 12Z)-hexadecatrienoic acid (HTA) (S. aureus): about twice as much |
| – | – | – | CCCCCCCCCCCCCCCCOP(=O)([O-])OCC[N+](C)(C)C [Miltefosine] | – | – | cure rates [10]: about 98% |
| > 20 | – | > 20 | Cc1c(O)cc(O)c2c1COC2=O [Compound 8, 5,7-dihydroxy-4-methylphthalide] | – | – | immunosuppressive activity [15]: immunosuppressive activity |
| > 20 | > 20 | > 20 | C/C=C/C=C/C=C/c1c(O)cc(CC=C(C)C)c(O)c1C=O [Compound 5, auroglaucin] | inhibited | antioxidant activity and radical scavenging activity | – |
| > 20 | > 20 | > 20 | CCC/C=C/C=C/c1c(O)cc(CC=C(C)C)c(O)c1C=O [Compound 4, dihydroauroglaucin] | inhibited | antioxidant activity and radical scavenging activity | IC50 Antimalarial P. falciparum D6 [8]: inactive; IC50 Antimalarial P. falciparum W2 [9]: inactive |

| SMILES | IC50 [1] [µg/mL] | IC50 [2] [µg/mL] | IC50 [5] [µg/mL] | inhibition of mouse skin tumor promotion [3] | antioxidant activity and radical scavenging activity against DPPH [6] | further results |
| --- | --- | --- | --- | --- | --- | --- |
| C=CC(C)(C)c1[nH]c2c(CC=C(C)C)cc(CC=C(C)C)cc2c1C[C@@H]1NC(=O)[C@H](C)NC1=O [Compound 7, echinulin] | > 20 | > 20 | > 20 | – | – | concentration in food that swine refused to eat [11]: 8 ng/mL; organ damage (alveolar, liver) [12]: severe damage of alveolar organization and thickening of alveolar walls and liver damage; concentration in the water causing drinking refusal in mice [13]: 90000 ng/mL; genotoxicity [14]: not genotoxic; cytotoxicity to HeLa cells (HeLa cells; at the concentration of 100 mg/l, ref Umeda et al., 1974, Wang et al., 2006): cytotoxicity |
